Active and inactive are the calls of the source.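 Rule for the calls: active = ranking score of 15 or more out of 100, based on fitted potency or summed per-dose inhibition deviations; inactive = the rest.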
Tested on: exon1htt(103Q)-mCFP cells, aggregate imaging, high-content
Assay: mutant huntingtin aggregate clearance potency, dose response, imaging, exon1htt(103Q)-mCFP cells, high-content imaging (AID 486)

SMILES	IC50
CCOc1cc(C(=O)Nc2ncccn2)cc(OCC)c1OCC	> 8 µM (inactive)
CCN(CC)c1ccc2cc(-c3nc4ccccc4[nH]3)c(=O)oc2c1	> 8 µM (inactive)
COc1cccc(/C=N/n2c(C)nc3ccccc32)c1OC	> 8 µM (inactive)
CCCCNC(=O)CSc1nc2ccc(N3CCOCC3)cc2c(=O)n1CCc1ccccc1	> 8 µM (inactive)
Cc1c(C(=O)NCc2cccnc2)oc2ccc(S(=O)(=O)N3CCCCC3)cc12	> 8 µM (inactive)
CC1(C)CC(=O)C(C=NCCO)=C(O)C1	> 8 µM (inactive)
COc1ccc(-c2nnc(SCC#N)o2)cc1	> 8 µM (inactive)
Cn1cccc1Cc1nnc(SCC(=O)NCC2CCCO2)n1-c1ccc(F)cc1 (stereo not given)	> 8 µM (inactive)
COc1ccc(CCNC(=O)c2ccc(N3CCCC3=O)cc2)cc1OC	> 8 µM (inactive)
Cc1cc(NC(=O)c2ccc(Cl)cc2)no1	> 8 µM (inactive)
CSc1ccccc1NC(=O)c1c(Br)cnn1C	> 8 µM (inactive)
O=C(CSc1nnc(-c2ccco2)n1-c1ccccc1)N1CCN(C(=O)c2ccco2)CC1	> 8 µM (inactive)
CC(OC1=CC(=O)CCC1)C(=O)c1ccccc1 (stereo not given)	> 8 µM (inactive)
C=C(C)CSc1nnc(-c2cccc(S(=O)(=O)N(C)C)c2)n1-c1cc(OC)ccc1OC	> 8 µM (inactive)
COc1cccc(-c2nnc3sc(C4CCCCC4)nn23)c1	> 4 µM (inactive)
COc1cccc(C2C(C(=O)c3ccc(C)o3)=C(O)C(=O)N2CCCN(C)C)c1 (stereo not given)	> 8 µM (inactive)
O=C(c1ccc(=O)[nH]c1)N(Cc1ccco1)C1(C(=O)NC2CCCC2)CCCCC1	> 8 µM (inactive)
COc1ccc(S(=O)(=O)Cc2ccc(C(=O)NCCc3ccc(S(N)(=O)=O)cc3)o2)cc1	> 8 µM (inactive)
CCOc1cc(C(=O)N2CCN(c3ccccc3)CC2)cc(OCC)c1OCC	> 8 µM (inactive)
CCOC(=O)N1CCN(C(=O)c2ccc3c(=O)n(Cc4ccc(OC)cc4)c(=S)[nH]c3c2)CC1	> 8 µM (inactive)
Cc1cc(C)c(C)c(S(=O)(=O)Nc2ccc(O)cc2)c1C	> 8 µM (inactive)
Cc1ccc(Nc2nc(N)nc(CN3CCN(Cc4ccc5c(c4)OCO5)CC3)n2)cc1	> 8 µM (inactive)
Cc1nc(C)n(C(C)CC(=O)O)n1 (stereo not given)	> 8 µM (inactive)

SMILES	IC50
O=C1NC(=O)C(CC(=O)N(Cc2ccco2)C2(C(=O)NC3CCCC3)CCCCC2)N1 (stereo not given)	> 8 µM (inactive)
COc1ccc(N2CCC(CNS(=O)(=O)c3cccc(C(F)(F)F)c3)C2)cc1 (stereo not given)	> 8 µM (inactive)
O=C(CSc1nnc(CNC(=O)c2c(F)cccc2Cl)o1)c1ccccc1	> 8 µM (inactive)
Cn1c(=O)n(C)c2cc(NC(=O)C(F)(F)F)ccc21	> 8 µM (inactive)
O=C(Nc1nccs1)c1ccc(Cl)c(S(=O)(=O)N2CCCCC2)c1	> 8 µM (inactive)
CN(C)c1ccc(O)c2c1CC1CC3[C@@H](N(C)C)C(=O)C(C(N)=O)=C(O)[C@]3(O)C(=O)C1=C2O (stereo not given in full)	< 0.1 µM
COC(=O)c1oc2ccc(Br)cc2c1NC(C)=O	> 8 µM (inactive)
COc1ccc(CNc2nc3nc(C)cc(C)n3n2)cc1OC	> 8 µM (inactive)
COc1ccc(-c2nc(C#N)c(N3CCOCC3)o2)cc1OC	> 8 µM (inactive)
Nc1cc(-c2ccccc2)ccc1O	> 8 µM (inactive)
COc1ccc(Cc2nnc3n2N=C(c2cc4ccccc4o2)CS3)cc1OC	> 8 µM (inactive)
Nc1nonc1NC(=O)CSc1nc2ccccc2s1	> 8 µM (inactive)
COCCCNC(=O)C(Cc1ccccc1)NS(=O)(=O)c1ccc2c(c1)c(=O)n(C)c(=O)n2C (stereo not given)	> 8 µM (inactive)
CN(C)[C@@H]1C(=O)C(C(N)=O)=C(O)[C@@]2(O)C(=O)C3=C(O)c4c(O)cccc4[C@@](C)(O)[C@H]3C[C@@H]12	0.08 µM
CC(C)CCNC(=O)C(C)N(Cc1ccc(F)cc1)C(=O)c1ccc(CN2CCCCC2)o1 (stereo not given)	> 8 µM (inactive)
Cc1ccc(/C=c2\sc3nc(-c4ccccc4Br)nn3c2=O)o1	> 8 µM (inactive)
Cc1nc(NC2=NCN(CC3CCCO3)CN2)nc2ccccc12 (stereo not given)	> 8 µM (inactive)
CS(=O)(=O)N1CCN(c2ccccc2NC(=O)c2ccc(-c3ccc(Cl)cc3Cl)o2)CC1	> 8 µM (inactive)
COC(=O)c1c(N)nc(C)n1-c1ccc(OC)cc1	> 8 µM (inactive)
CC(C)(NC(=O)N1CCCC1)c1cccc(C(C)(C)NC(=O)N2CCCC2)c1	> 8 µM (inactive)
CCn1c(C(=O)N2CCCC(C(=O)NCCCc3ccccc3)C2)cc2sccc21 (stereo not given)	> 4 µM (inactive)
O=C(NCc1ccco1)c1ccccc1Nc1ccc(F)cc1	> 8 µM (inactive)

Source: PubChem BioAssay AID486 (Columbia University Molecular Screening Center, 2006)
